16 compounds from ChEMBL document CHEMBL1155076, “Synthesis and pharmacological evaluation of novel gamma-aminobutyric acid type B (GABAB) receptor agonists as gastroesophageal reflux inhibitors” (J Med Chem, 2008) can be followed below.

The test system of one series is CHO-K1. The experiment in a line: Intrinsic activity at human recombinant GABAB receptor expressed in CHO-K1 cells assessed as inhibition of intracellular calcium release by FLIPR relative to GABA. The series is classed as cell-based.
A short description of series [1]: Agonist activity at human recombinant GABABreceptor expressed in CHO-K1 cells assessed as inhibition of intracellular calcium release by FLIPR. The series is classed as functional, cell-based. Background: A change in cytosolic calcium serves as a functional read-out for many receptors and channels.
Series [2] can be described thus: Displacement of [3H]GABA from GABABreceptor in rat brain synaptic membranes. The series is classed as cell membranes, Membrane.
A further series is filed under the species Canis familiaris. The experiment in a line: Inhibition of transient lower esophageal sphincter relaxation in dog. The series is classed as functional. To be noted: Canis lupus familiaris.
In another series the test system is Mus musculus. The experiment in a line: Toxicity in sc dosed mouse assessed as subcutaneous dose producing 2 degC decrease in body temperature. The format is organism-based. To be noted: in vivo.
Series [3] can be described thus: Bioavailability in rat. The format is ADME, organism-based. To be noted: in vivo.
Series [4] in a line: Bioavailability in dog. The format is ADME, organism-based, Canis lupus familiaris. To be noted: in vivo.

Structures are written as SMILES.

As to `CP(=O)(O)C[C@H](O)CN`, the Intrinsic activity in the series on CHO-K1 turned out to be 1. Besides, the EC50 in series [1] turned out to be 600 nM. This compound registered a Ki in series [2] of 840 nM.
For `CP(=O)(O)C[C@H](F)CN` the same measures were 1, 14 nM and 4.3 nM.
Regarding `CP(=O)(O)C[C@@H](O)CN`, the Intrinsic activity in the series on CHO-K1 amounted to 1. This compound also came in with an ED50 in the series filed under Canis familiaris of 0.17 µmol/kg. The EC50 in series [1] was 150 nM. This compound yielded a Ki in series [2] of 180 nM. Also, the Activity in the series with Mus musculus was 5.4 µmol/kg.
Regarding `NCC(CC(=O)O)c1ccc(Cl)cc1` (stereo not given), the Intrinsic activity with CHO-K1 amounted to 1.
Turning to `NC[C@H](F)C[PH](=O)O`, the Intrinsic activity in the series on CHO-K1 came to 1. For the same compound, the EC50 in series [1] amounted to 250 nM. For the same compound, the Ki in series [2] is 70 nM.
Take `NCCC[PH](=O)O`: the Intrinsic activity in the series with CHO-K1 worked out at 1. For the same compound, in series [1], the EC50 came to 19 nM. Also, the Ki in series [2] amounted to 15 nM.
For `NC[C@H](O)C[PH](=O)O`, the Intrinsic activity in the series on CHO-K1 turned out to be 1. In addition, the ED50 in the series filed under Canis familiaris was 7 µmol/kg. Also, the EC50 in series [1] was found to be 130 nM. Further, the bioavailability was determined as 78% in series [3] and 88% in series [4]. In series [2], this compound registered a Ki of 50 nM. Moreover, the Activity in the series on Mus musculus was more than 8000 µmol/kg.
For `CP(=O)(O)CC(=O)CN`, the Intrinsic activity with CHO-K1 stood at 1. Also, the EC50 in series [1] was determined as 270 nM. Moreover, in series [2], the Ki worked out at 200 nM.
For `NCC(F)C[PH](=O)O` (stereo not given) the same measures were 1, 15 nM and 10 nM.
Consider `NCC(O)C[PH](=O)O` (stereo not given), for which, in the series with CHO-K1, the Intrinsic activity was found to be 1. Further, the EC50 in series [1] came to 220 nM. The affinity in series [2] corresponds to a Ki of 94 nM.
Consider `CP(=O)(O)CCCN`, for which, in the series with CHO-K1, the Intrinsic activity came out at 1.
On to `NCC(=O)C[PH](=O)O`, for which the Intrinsic activity with CHO-K1 came out at 1. In addition, in series [1], the EC50 was 81 nM. This compound displayed a Ki in series [2] of 48 nM.
For `CP(=O)(O)CC(F)CN` (stereo not given) the same measures were 1, 23 nM and 14 nM.
The matching figures for `CP(=O)(O)C[C@@H](F)CN`: 1, 1700 nM and 480 nM.
`NC[C@@H](O)C[PH](=O)O`: in the series on CHO-K1, the Intrinsic activity came to 1. For the same compound, in series [1], the EC50 turned out to be 1100 nM. The compound further had a Ki in series [2] of 2100 nM.
Consider `NC[C@@H](F)C[PH](=O)O` [LESOGABERAN], for which the Intrinsic activity in the series with CHO-K1 came out at 1. In addition, the EC50 in series [1] was 8.64 nM. In series [2], this compound came in with a Ki of 5.1 nM.

The term EC50 denotes the midpoint of the concentration-response curve. A word on the Ki: it is a dissociation constant, usually derived from enzyme kinetics or from competition with a known ligand. A high value points to weaker binding. As a reminder, the ED50 is the dose at which the effect has come halfway, by size or by number of responders. A higher ED50 goes with a need for a large dose. The bioavailability is the share of a dose that reaches the circulation, judged against a reference dose that is usually intravenous. The low end stands for poor availability, the high end for good availability.
